Data taken from patent publication US9186416B2, “Immunoconjugates, compositions for making them, and methods of making and use” (priority 2011, dated 2015).

Columns and labels:
[1] = system: 786-O cell lysate; test: Dephosphorylation by 786-O cell lysate; format: in vitro ADME, human; settings: 100 μM compound, 786-O lysate 2 mg/mL protein, pH 5.5, 37° C.
Protocol: 786-O cells, as frozen pellets with an estimated quantity of 10^7 cells per vortexing tube, were resuspended and homogenized in 500 μL of lysis buffer (25 mM NaOAc, 1 mM EDTA, 0.25 M sucrose, 0.1% Triton X-100, pH 5.5). Homogenization involved vortex mixing for 30 sec, followed by a one min cooling on ice. For each tube, three vortex and cooling cycles were performed. Cell samples were then further mixed by shearing in a 19 gauge needle three times.
Following homogenization, the DNA of the cell lysate was hydrolyzed using BENZONASE™ DNAse. Samples were first brought up in 1 mM MgSO4. After mixing, 2 μL of BENZONASE™ DNAse (neat) were added to each vial of lysate (4 μL/mL, v/v, final concentration). Samples were then stored at RT for 15 min and then cooled on ice. For this step, successful DNAse activity was evidenced by appearance of flocculent precipitate. Samples were then spun at maximum speed in a microcentrifuge for 5 min to remove cellular debris. Supernatant was frozen at −70° C. for later use. Protein concentration of the lysate was determined using Pierce BCA Protein Determination methodology (Thermo Scientific).
A 2000 μM stock solution of the compound of formula (Ia) was prepared. Lysate was diluted to 2.1 mg/mL in lysate buffer. For reaction, 5 μL of the compound (Ia) stock was added to 95 μL of lysate. […]

[2] = system: H226 cell lysates; test: Dephosphorylation by H226 cell lysates; format: in vitro ADME, human; settings: similar experiment

SMILES: Nc1ccc(C(=O)Nc2ccc3[nH]c(C(=O)N4C[C@@H](CCl)c5c4cc(OP(=O)(O)O)c4ccccc54)cc3c2)cc1 [compound (Ia)]
- time to complete dephosphorylation [1]: ≤ 8 h
- time to complete dephosphorylation [2]: ≤ 3 h
